Results reported in PubChem BioAssay (NCI).
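In this assay, cells in 96-well plates receive the compound at five concentrations for 48 hours. Endpoints are linearly interpolated between the surrounding concentrations. TGI marks complete inhibition of growth.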

Assays:
Test in all cases: NCI tumour cell line growth inhibition, 48 h
[1] = system: HOP-92 NSCLC
[2] = system: UO-31 renal
[3] = system: OVCAR-8 ovarian
[4] = system: HCT-116 colon
[5] = system: MOLT-4 leukemia
[6] = system: CCRF-CEM leukemia
[7] = system: HS 578T breast
[8] = system: TK-10 renal
[9] = system: NCI/ADR-RES ovarian
[10] = system: SR leukemia
[11] = system: OVCAR-5 ovarian
[12] = system: RXF 393 renal
[13] = system: A549 NSCLC
[14] = system: UACC-62 melanoma
[15] = system: A498 renal
[16] = system: IGROV1 ovarian
[17] = system: T-47D breast
[18] = system: NCI-H522 lung
[19] = system: MDA-MB-435
[20] = system: LOX IMVI melanoma
[21] = system: COLO 205 colon
[22] = system: SNB-75 CNS
[23] = system: SNB-19 CNS
[24] = system: KM12 colon
[25] = system: K-562 leukemia
[26] = system: SK-MEL-2 melanoma
[27] = system: ACHN renal
[28] = system: 786-0 renal
[29] = system: MCF7 breast
[30] = system: SW-620 colon
[31] = system: SK-MEL-5 melanoma
[32] = system: OVCAR-3 ovarian
[33] = system: HT29 colon
[34] = system: HL-60(TB) leukemia
[35] = system: SF-268 CNS
[36] = system: EKVX NSCLC
[37] = system: OVCAR-4 ovarian
[38] = system: NCI-H226 lung
[39] = system: RPMI-8226 leukemia
[40] = system: MALME-3M melanoma
[41] = system: UACC-257 melanoma
[42] = system: NCI-H23 lung
[43] = system: BT-549 breast
[44] = system: SK-OV-3 ovarian
[45] = system: NCI-H460 lung
[46] = system: U251 CNS
[47] = system: PC-3 prostate
[48] = system: SF-295 CNS
[49] = system: HOP-62 NSCLC
[50] = system: M14 melanoma
[51] = system: HCT-15 colon
[52] = system: CAKI-1 renal
[53] = system: SF-539 CNS
[54] = system: SK-MEL-28 melanoma
[55] = system: MDA-N
[56] = system: MDA-MB-231 breast
[57] = system: HCC-2998 colon
[58] = system: SN12C renal
[59] = system: DU-145 prostate

Measured: TGI

CC(CCc1ccccc1)NCC(O)n1c(/N=N/N(C)C)nc2c1c(=O)n(C)c(=O)n2C (stereo not drawn)
not listed: [57] | [58] | [59]
> 100 µM: all other assays above

COCC1OC(OC2OCC3OC4(OCC(O)(C(C)OC)C5OCOC54)OC3C2OC)C(OC)C(O)C1OC1OC(C)C(OC)C(OC2OC(C)C3OC4(CC(O)C(OC5CC(OC6CC(C)([N+](=O)[O-])C(OC)C(C)O6)C(OC(=O)c6c(C)c(Cl)c(O)c(Cl)c6OC)C(C)O5)C(C)O4)OC3(C)C2O)C1O (stereo not drawn)
not listed: [29] | [40]
> 100 µM: all other assays above
